Laboratory results taken from patent US20070037785A1, “Novel dipeptidyl peptidase IV inhibitors used for functionally influencing different cells and treating immunological, infammatory, neuronal, and other diseases” (priority 2003, published 2007).

molecular target: dipeptidyl peptidase IV (Homo sapiens, UniProt P27487); experiment: biochemical; conditions: values marked with "*" are ID50 values; read-out: IC50DPIV, values marked with "*" = ID50
Sequence (P27487 whole entry, species assumed): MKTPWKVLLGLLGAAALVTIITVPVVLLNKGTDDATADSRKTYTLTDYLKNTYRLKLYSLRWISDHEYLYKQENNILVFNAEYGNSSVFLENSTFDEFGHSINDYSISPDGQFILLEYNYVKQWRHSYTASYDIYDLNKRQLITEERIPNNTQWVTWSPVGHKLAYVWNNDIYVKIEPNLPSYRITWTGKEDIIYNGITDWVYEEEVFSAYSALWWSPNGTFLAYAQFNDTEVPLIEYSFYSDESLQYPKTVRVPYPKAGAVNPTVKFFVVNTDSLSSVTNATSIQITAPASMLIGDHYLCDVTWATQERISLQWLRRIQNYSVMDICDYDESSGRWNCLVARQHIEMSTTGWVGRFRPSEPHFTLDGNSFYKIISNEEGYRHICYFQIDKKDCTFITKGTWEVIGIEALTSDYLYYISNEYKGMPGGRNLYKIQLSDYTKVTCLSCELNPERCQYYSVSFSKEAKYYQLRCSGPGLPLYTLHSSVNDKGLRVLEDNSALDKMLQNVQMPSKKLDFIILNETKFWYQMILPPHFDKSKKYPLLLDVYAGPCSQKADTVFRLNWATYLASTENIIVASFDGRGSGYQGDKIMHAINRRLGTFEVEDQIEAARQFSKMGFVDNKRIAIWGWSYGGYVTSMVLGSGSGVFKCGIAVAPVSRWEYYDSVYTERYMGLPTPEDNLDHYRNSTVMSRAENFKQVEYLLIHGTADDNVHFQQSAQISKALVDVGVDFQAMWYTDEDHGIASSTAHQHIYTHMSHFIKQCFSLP

| Structure (SMILES) | IC50 [µM] |
| --- | --- |
| CS(=O)(=O)N1CCN(c2ccc([N+](=O)[O-])c(NCc3ccc(Cl)cc3)c2)CC1 [D4.112] | 361 |
| COc1cc(/C=N/NC(=O)c2ccc(NC(=O)c3ccccc3C)cc2)cc(OC)c1OC [D10.100] | 91 |
| O=C(COc1ccccc1C(=O)N/N=C\c1ccc(O)c(O)c1)N/N=C/c1ccc(O)c(O)c1 [D10.113] | 127 |
| CC(C)c1ccc(N2CC(C(=O)Nc3ccc(Br)cc3Br)CC2=O)cc1 (stereo not drawn) [D4.096] | 172 |
| C=CCOC(=O)C1=CS(=O)(=O)c2ccccc21 [D3.105] | 252 |
| COc1ccc(-n2c(=O)c3c4c(sc3n3c(SCc5ccc(Br)cc5)nnc23)COC(C)(C)C4)cc1 [D3.113] | 317 |
| Cc1ccc(OCC(=O)N/N=C/c2c(Br)cc(Br)c(O)c2Br)c(Br)c1 [D10.106] | 101 |
| O=C(CCCOc1ccc(Cl)cc1Cl)N/N=C1/C(=O)Nc2ccc(Br)cc21 [D10.121] | 204 |
| CCCn1c(N2CCN(CC(=O)Nc3c(C(=O)OCC)[nH]c4ccc(F)cc34)CC2)nc2c1c(=O)[nH]c(=O)n2C [D13.004] | 69.8 |
| C/C(=N\NC(=O)CNC(=O)c1ccc(Cl)cc1)c1ccc2ccccc2c1 [D10.122] | 208 |
| Cn1c(=O)c2c(nc(NCC(O)CO)n2Cc2ccccc2Cl)n(C)c1=O (stereo not drawn) [D12.040] | 83.3 |
| O=C(Nc1ccccc1CC(=O)N1CCCNCC1)c1cccnc1Sc1ccccc1 [D1.002] | 1.4 |
| CC12NCC(c3ccccc3)CC1O2 (stereo not drawn) [D5.047] | 96.6 |
| O=C(N/N=C/c1cccc([N+](=O)[O-])c1)c1ccc(NCc2ccccc2)cc1 [D10.126] | 234 |
| O=C(N/N=C/c1cc(Br)cc(Br)c1OC(=O)c1ccccc1)/C(=C/c1cccs1)NC(=O)c1ccccc1 [D10.110] | 114 |
| Cc1ccc(C(=O)NC(NC(=S)Nc2sc3c(c2C(N)=O)CCCC3)C(Cl)(Cl)Cl)cc1 (stereo not drawn) [D3.099] | 169 |
| CCOc1cc(/C=N/NC(=O)c2ccccc2)ccc1O [D10.123] | 218 |
| CCn1c2ccccc2c2cc(/C=N/NC(=O)c3ccc([N+](=O)[O-])cc3)ccc21 [D10.116] | 165 |
| CCOC(=O)O/N=C(N)/C(N)=N/OC(=O)OCC [D2.006] | 133 |

same assay, conditions: values without "*" = IC-50; read-out: IC50DPIV

| Structure (SMILES) | IC50 [µM] |
| --- | --- |
| CC1=C(C#N)C(=O)N(CC(C)O)C(=O)/C1=C/c1ccc(-c2ccc(Br)cc2)o1 (stereo not drawn) [D6.089] | 73.8 |
| O=C1CCCC(=O)N1c1ccc(NCCOCCO)c([N+](=O)[O-])c1 [D4.065] | 55 |
| COc1cc(/C=N/NC(=O)CNC(=O)c2cccc(F)c2)ccc1OC(=O)c1ccccc1Cl [D10.093] | 63.5 |
| CCn1c(N2CCN(c3ccc(OC)cc3)CC2)nc2c1c(=O)[nH]c(=O)n2C [D6.028] | 19.2 |
| O=C(N/N=C/c1ccc([N+](=O)[O-])o1)c1ccccc1I [D10.040] | 20.9 |
| COc1cc(/C=N/NC(=O)/C(=C/c2ccc(N(C)C)cc2)NC(=O)c2ccccc2)cc(Br)c1O [D10.070] | 46.2 |
| CCCC(=O)O/N=C1\C(=O)N(c2ccccc2)c2ccccc21 [D3.021] | 15.2 |
| CC1=C(C#N)C(=O)N(CCCO)C(=O)/C1=C\c1ccc(-c2cc(C)c(C)cc2[N+](=O)[O-])o1 [D6.055] | 34.8 |
| CNc1nc2c(c(=O)[nH]c(=O)n2C)n1Cc1ccccc1Cl [D6.043] | 27.8 |
| CC(C)(C)C(=O)Nc1ccc(C(=O)Nc2nccs2)cc1 [D6.007] | 7.5 |
| O=C(N/N=C/c1cc([N+](=O)[O-])cc([N+](=O)[O-])c1O)/C(=C\c1cccs1)NC(=O)c1ccccc1 [D10.029] | 17.5 |
| Cn1c(=O)c2c(nc(NCCO)n2Cc2ccccc2Cl)n(C)c1=O [D6.063] | 44 |
| COc1cc(Br)ccc1OCC(=O)N/N=C/c1cc(O)c(O)c(Br)c1Br [D10.013] | 10.2 |
| Brc1cccc(/C=N/Nc2nnc3c(n2)[nH]c2ccccc23)c1 [D3.015] | 12.2 |
| CCOC(=O)c1ccc(-c2ccc(/C=C3\C(=O)N(CCO)C(=O)C(C#N)=C3C)o2)cc1 [D4.074] | 65.9 |
| Cc1ccc(C2N(CC(C)C)CC(C(=O)c3c(C)cccc3C)N2CCCN2CCCC2=O)cc1 (stereo not drawn) [D6.008] | 7.5 |
| Nc1nonc1-n1nnc(C(=O)NN=C2c3ccccc3-c3ccccc32)c1-c1ccccc1 [D4.013] | 10.1 |
| CCCC(=O)O/N=C1\C(=O)N(c2ccccc2)c2ccccc21 [D4.020] | 15.2 |
| Cc1cccc(C2N(CC(C)C)CC(C(=O)c3c(C)cccc3C)N2CCCN2CCCC2=O)c1 (stereo not drawn) [D4.010] | 7.5 |
| CC(C)(C)S(=O)(=O)c1ccc2nc3c(n2c1)CCCC3 [D3.003] | 15.6 |
| O=C1CSCC(=O)N1c1cc(Cl)cc(Cl)c1 [D4.011] | 8.5 |
| COc1cc(/C=N/NC(=O)COc2ccc(C(C)(C)CC(C)(C)C)cc2)cc([N+](=O)[O-])c1O [D10.033] | 18.9 |
| O=C(/C=C/c1ccco1)c1ccccc1 [D6.029] | 19.7 |
| O=C(/C=C/c1ccco1)Nc1ccc2oc(-c3cccc(Cl)c3Cl)nc2c1 [D3.055] | 42.4 |

| Structure (SMILES) | IC50 [µM] |
| --- | --- |
| CCOC(=O)n1ccc(C(=O)Nc2ccccc2F)n1 [D6.026] | 17.9 |
| CCSc1nnc2n(-c3ccc(OC)cc3)c(=O)c3c4c(sc3n12)CCCC4 [D3.013] | 10.8 |
| C/C(=N\NC(=O)c1cc(C(C)(C)C)n[nH]1)c1ccc(Cl)cc1 [D10.081] | 55.7 |
| COc1ccc2ccccc2c1/C=N/NC(=O)c1cc2ccccc2cc1O [D10.031] | 17.8 |
| O=C(N/N=C/c1c(O)ccc2ccccc12)c1cc(-c2ccc(-c3ccccc3)cc2)n[nH]1 [D10.056] | 33.5 |
| CN(/N=C/c1sc(=O)[nH]c1Cl)c1ccccc1 [D10.057] | 32.4 |
| CNc1nc2c(c(=O)[nH]c(=O)n2C)n1Cc1ccccc1Cl [D3.091] | 27.8 |
| Cc1ccc(C)n1-c1cccc(C(=O)N/N=C/c2cc(Br)c(O)c(Br)c2)c1 [D10.065] | 41 |
| O=C1/C(=N\NC(=S)Nc2ccccc2F)c2cc(S(=O)(=O)N3CCOCC3)ccc2N1Cc1ccc(Cl)cc1 [D2.004] | 33.4 |
| CC(/C=N/NC(=O)CNc1ccc(C)cc1)=C\c1ccc(/C=C(C)/C=N/NC(=O)CNc2ccc(C)cc2)cc1 [D10.038] | 20.5 |
| COc1c(O)ccc(/C=N/NC(=O)COc2c(Br)cc(Br)cc2Br)c1[N+](=O)[O-] [D10.079] | 55.4 |
| N#Cc1c(NC(=O)C(C(F)(F)F)C(F)(F)F)sc2c1CCC2 [D3.038] | 30.9 |
| Cc1ccc(C(=O)N/C(=C\c2ccco2)C(C)N2CCOCC2)cc1C (stereo not drawn) [D6.067] | 46.5 |
| CCCCOC(=O)c1cc(-c2ccc(/C=C3/C(=O)N(CC(C)O)C(=O)C(C#N)=C3C)o2)ccc1Cl (stereo not drawn) [D4.059] | 49 |
| Brc1cccc(/C=N/Nc2nnc3c(n2)[nH]c2ccccc23)c1 [D10.015] | 12.2 |
| CCC(=O)Oc1ccc2c(c1)OC1(OC(C)=O)OC(C)CC1=C2C (stereo not drawn) [D3.047] | 37.4 |
| Cc1ccc(S(=O)(=O)CNC(=S)c2ccc3ccccc3c2)cc1 [D3.019] | 14.5 |
| CCCOC(=O)c1cc(-c2ccc(/C=C3\C(=O)N(CCCO)C(=O)C(C#N)=C3C)o2)ccc1Cl [D4.081] | 76.3 |
| COc1cc2c(cc1OC)CC1(CCCC1)N=C2 [D3.077] | 59.1 |
| CSc1nc2sc3c(c2c(=O)n1-c1cccc(C)c1)CC(C)(C)OC3 [D3.088] | 80.6 |
| Cc1ccc2nc(-c3ccc(N4C(=O)CC(N5CCC(C)CC5)C4=O)cc3)sc2c1 (stereo not drawn) [D3.094] | 116 |
| COc1cc2c(cc1OC)CC(C)(C)N=C2 [D3.026] | 20.2 |
| COc1ccc(/C=N/n2c(N(C(C)=O)C(C)=O)nc(-c3ccccc3)c2-c2ccccc2)cc1 [D4.034] | 24.3 |
| N#Cc1ccc(/C=N/NC(=O)c2cc([N+](=O)[O-])ccc2O)cc1 [D10.098] | 81.4 |

| Structure (SMILES) | IC50 [µM] |
| --- | --- |
| O=C(NNC1=C(Cl)C(=O)C(Cl)(Cl)C1=O)c1ccccc1 [D14.004] | 26.2 |
| COc1ccc(C(=O)N/N=C/c2ccc(Cl)cc2Cl)cc1 [D10.063] | 40.4 |
| Cc1cc(Nc2ccc(N3C(=O)CCCC3=O)cc2[N+](=O)[O-])no1 [D4.025] | 20 |
| Cc1[nH]c2ccccc2c1C(c1cc(Cl)ccc1O)N1CCOCC1 (stereo not drawn) [D5.007] | 12.1 |
| Cc1ccc(/C=N/NC(=O)c2cccc(I)c2)o1 [D10.085] | 57.7 |
| Nc1nonc1-n1nnc(C(=O)NN=C2c3ccccc3-c3ccccc32)c1-c1ccccc1 [D10.012] | 10 |
| Cc1cccc(C(=O)Oc2c(Br)cc(Br)cc2/C=N/NC(=O)CNC(=O)c2ccc(Cl)cc2)c1 [D10.021] | 13.2 |
| CCC(=O)Oc1ccc(C(=O)Nc2ccc(OCC(=O)O)cc2)cc1 [D3.025] | 23.8 |
| CCOc1cc(/C=N/NC(=O)c2cc(O)c(O)c(O)c2)ccc1O [D10.034] | 19.1 |
| CC(C)C1=CC23CCC4C(C)(C(=O)O)CCCC4(C)C2CC1C1C(=O)N(c2cccc(O)c2)C(=O)C13 (stereo not drawn) [D3.074] | 55.4 |
| Cc1cc(-c2ccc(/C=C(\C#N)c3nc4ccccc4[nH]3)o2)ccc1[N+](=O)[O-] [D3.096] | 138 |
| Cc1cc([N+](=O)[O-])c(C)cc1-c1ccc(/C=C/c2cc(C(F)(F)F)nc(=O)[nH]2)o1 [D6.034] | 20.6 |
| O=C(N/N=C/c1ccc([N+](=O)[O-])c(O)c1)/C(=C\c1cccs1)NC(=O)c1ccccc1 [D10.004] | 6.5 |
| O=C1C=C(c2cccc([N+](=O)[O-])c2)C(=O)N1c1ccc(Cl)cc1 [D4.016] | 12.3 |
| CC1=C(C#N)C(=O)N(CC(C)O)C(=O)/C1=C/c1ccc(-c2ccc(Br)cc2)o1 (stereo not drawn) [D4.080] | 73.8 |
| CCC(O)(CC)C(=O)NNc1ccc(C)cc1 [D14.005] | 26.7 |
| COc1cc2c(cc1OC)CC(C)(C)NC2 [D3.005] | 6 |
| COc1cc(/C=N/NC(=O)c2ccco2)cc(OC)c1OC(C)=O [D10.041] | 21.8 |
| Cc1ccc(C(=O)N/C(=C\c2ccco2)C(=O)N2CCOCC2)cc1C [D12.025] | 46.5 |
| O=C(N/N=C/c1cccc(Oc2ccccc2)c1)c1cc(Br)cc(Br)c1O [D10.054] | 33.3 |
| CC(C)C1Cc2c(sc3c2c(=O)n(Cc2ccccc2)c2nnc(SCC(=O)O)n32)CO1 (stereo not drawn) [D6.037] | 18.9 |
| O=[N+]([O-])c1ccc(C2OCN3COCC23)cc1 (stereo not drawn) [D3.095] | 42.4 |
| COC(=O)c1ccc(NC(=O)/C(=C\c2cccc([N+](=O)[O-])c2)NC(=O)c2ccc(Br)o2)cc1 [D6.108] | 115 |
